These results are taken from article PMC8897147 (Acta Pharmaceutica Sinica. B, 2021).

In assay [1] the target is T1, GHRHR (Homo sapiens, UniProt Q02643).
T1 sequence (Q02643 23-423): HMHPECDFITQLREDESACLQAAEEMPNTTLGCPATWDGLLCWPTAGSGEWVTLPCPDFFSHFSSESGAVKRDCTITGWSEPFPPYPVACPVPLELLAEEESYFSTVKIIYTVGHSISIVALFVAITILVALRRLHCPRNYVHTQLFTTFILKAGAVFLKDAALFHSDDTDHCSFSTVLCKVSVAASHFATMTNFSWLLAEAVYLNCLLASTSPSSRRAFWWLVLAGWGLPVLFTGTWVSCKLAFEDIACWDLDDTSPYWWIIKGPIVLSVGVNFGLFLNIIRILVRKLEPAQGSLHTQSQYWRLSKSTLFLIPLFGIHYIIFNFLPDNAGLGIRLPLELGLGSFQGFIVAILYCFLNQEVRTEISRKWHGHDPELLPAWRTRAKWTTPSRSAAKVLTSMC
Nature of the assay: β-Arrestin1 recruitment. The conditions noted are these: COS-7, COS-7, % of max, receptor only, mean ± SEM n≥3.

The target of assay [2] is T2, SV1 (Homo sapiens, UniProt Q02643).
T2 sequence (Q02643 90-423 limits assumed): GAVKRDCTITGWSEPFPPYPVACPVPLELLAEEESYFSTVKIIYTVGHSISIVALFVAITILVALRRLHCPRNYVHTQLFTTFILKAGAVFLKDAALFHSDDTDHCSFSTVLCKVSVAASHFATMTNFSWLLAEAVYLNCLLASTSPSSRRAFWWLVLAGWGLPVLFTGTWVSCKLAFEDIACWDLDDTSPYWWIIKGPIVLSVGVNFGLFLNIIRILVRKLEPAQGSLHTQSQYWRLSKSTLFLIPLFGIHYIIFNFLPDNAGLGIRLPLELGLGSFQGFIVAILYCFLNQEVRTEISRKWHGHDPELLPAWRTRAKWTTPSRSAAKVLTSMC
Put plainly: Gαq activation. The conditions noted are these: HEK293A; no RAMP; data not shown.

In assay [3] the target is T2, SV1. Put plainly: cAMP accumulation. The conditions noted are these: COS-7, COS-7, % of max, receptor only, mean ± SEM n≥3.
Assay [4] deals with T2, SV1. Nature of the assay: β-Arrestin1 recruitment. As to conditions: COS-7, COS-7, % of max, receptor only, mean ± SEM n≥3.
Assay [5] deals with T1, GHRHR. Put plainly: Gαq activation. As to conditions: HEK293-A, HEK293A, % of max, receptor only, mean ± SEM n≥3.
For assay [6], the target named is T1, GHRHR. Put plainly: cAMP accumulation. As to conditions: COS-7, COS-7, % of max, receptor only, mean ± SEM n≥3.
Assay [7] concerns β2-AR. Put plainly: Gαq activation. As to conditions: HEK293A, mean ± SEM n≥3.
For assay [8], the system named is β2-AR. Nature of the assay: β-Arrestin1 recruitment. The conditions noted are these: COS-7, mean ± SEM n≥3; for Emax: % of max, receptor only.
In assay [9] the test system is β2-AR. Put plainly: β-Arrestin2 recruitment. The conditions noted are these: COS-7, mean ± SEM n≥3; for Emax: % of max, receptor only.
The test system of assay [10] is β2-AR. Put plainly: cAMP accumulation. The conditions noted are these: COS-7, mean ± SEM n≥3.
The target of assay [11] is GCGR (Homo sapiens, UniProt P47871). Put plainly: BRET GPCR–RAMP interaction. It counts as binding. The conditions noted are these: COS-7; receptor-Rluc8:RAMP-Ypet 1:0.25 to 1:16; pH 7.4, 37 °C; mean ± SEM n≥3.
Assay [12] deals with COS-7 cells. Nature of the assay: RAMP cell surface expression. In kind it is cell-based. As to conditions: co-expression with SCTR, FLAG-RAMP.
For assay [13], the system named is SCTR. Put plainly: BRET GPCR–RAMP interaction. It counts as binding. The conditions noted are these: COS-7; receptor-Rluc8:RAMP-Ypet 1:0.25 to 1:16; pH 7.4, 37 °C; mean ± SEM n≥3.
Assay [14] has as its target T3, GLP-2R (Homo sapiens, UniProt O95838).
T3 sequence (O95838 1-553): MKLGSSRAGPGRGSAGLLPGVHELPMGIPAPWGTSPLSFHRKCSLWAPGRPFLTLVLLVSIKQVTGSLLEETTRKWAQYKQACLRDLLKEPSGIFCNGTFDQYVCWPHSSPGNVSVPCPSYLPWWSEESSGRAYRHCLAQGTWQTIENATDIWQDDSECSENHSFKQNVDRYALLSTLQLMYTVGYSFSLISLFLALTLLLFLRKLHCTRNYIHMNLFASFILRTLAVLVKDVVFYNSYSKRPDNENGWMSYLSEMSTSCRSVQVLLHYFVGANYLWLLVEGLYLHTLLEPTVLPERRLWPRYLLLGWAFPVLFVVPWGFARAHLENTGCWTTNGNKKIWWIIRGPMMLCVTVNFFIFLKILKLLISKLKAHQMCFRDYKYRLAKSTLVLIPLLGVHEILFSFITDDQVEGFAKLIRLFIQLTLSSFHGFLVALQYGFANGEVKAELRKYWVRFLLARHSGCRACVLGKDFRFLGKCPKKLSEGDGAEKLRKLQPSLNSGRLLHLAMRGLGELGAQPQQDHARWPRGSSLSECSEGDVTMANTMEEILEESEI
Nature of the assay: BRET GPCR–RAMP interaction. The conditions noted are these: COS-7. In kind it is binding.

Assay [15] concerns the target T1, GHRHR. Nature of the assay: BRET GPCR–RAMP interaction. The conditions noted are these: COS-7. It counts as binding.
In assay [16] the target is GLP-1R (Homo sapiens, UniProt P43220). Nature of the assay: BRET GPCR–RAMP interaction. In kind it is binding. The conditions noted are these: COS-7; receptor-Rluc8:RAMP-Ypet 1:0.25 to 1:16; pH 7.4, 37 °C; mean ± SEM n≥3.
Assay [17] addresses T4, GIPR (Homo sapiens, UniProt P48546).
T4 sequence (P48546 22-466): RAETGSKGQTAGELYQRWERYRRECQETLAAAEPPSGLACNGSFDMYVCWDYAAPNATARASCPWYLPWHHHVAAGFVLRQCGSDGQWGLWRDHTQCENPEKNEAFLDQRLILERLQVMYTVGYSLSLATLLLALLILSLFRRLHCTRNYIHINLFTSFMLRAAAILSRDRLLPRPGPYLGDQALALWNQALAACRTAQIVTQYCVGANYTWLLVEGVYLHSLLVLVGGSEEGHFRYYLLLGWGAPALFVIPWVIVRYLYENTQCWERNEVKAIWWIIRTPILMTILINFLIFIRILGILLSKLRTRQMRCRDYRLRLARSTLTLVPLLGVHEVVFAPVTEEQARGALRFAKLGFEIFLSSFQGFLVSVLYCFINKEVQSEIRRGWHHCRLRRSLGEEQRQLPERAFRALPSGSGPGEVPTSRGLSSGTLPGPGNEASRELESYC
Nature of the assay: BRET GPCR–RAMP interaction. As to conditions: COS-7; receptor-Rluc8:RAMP-Ypet 1:0.25 to 1:16; pH 7.4, 37 °C; mean ± SEM n≥3. It counts as binding.

For assay [18], the target named is CLR (Homo sapiens, UniProt Q16602). Nature of the assay: BRET GPCR–RAMP interaction. It counts as binding. The conditions noted are these: COS-7; receptor-Rluc8:RAMP-Ypet 1:0.25 to 1:16; pH 7.4, 37 °C; mean ± SEM n≥3.
For assay [19], the target named is T1, GHRHR. The conditions noted are these: HEK293T cells ref [11]; cited from earlier work.
In assay [20] the target is T2, SV1. Put plainly: BRET GPCR–RAMP interaction. It counts as binding. The conditions noted are these: COS-7; receptor-Rluc8:RAMP-Ypet 1:0.25 to 1:16; pH 7.4, 37 °C; mean ± SEM n≥3.
Setting [21] is: receptor-Rluc8:RAMP-Ypet 1:0.25 to 1:16, pH 7.4, 37 °C, mean ± SEM n≥3.

Entries after “also recorded” stand apart in the source; their conditions may differ. Like-named read-outs stand apart in the source and are kept apart here.

GCGR, sequence (P47871 26-477, species assumed): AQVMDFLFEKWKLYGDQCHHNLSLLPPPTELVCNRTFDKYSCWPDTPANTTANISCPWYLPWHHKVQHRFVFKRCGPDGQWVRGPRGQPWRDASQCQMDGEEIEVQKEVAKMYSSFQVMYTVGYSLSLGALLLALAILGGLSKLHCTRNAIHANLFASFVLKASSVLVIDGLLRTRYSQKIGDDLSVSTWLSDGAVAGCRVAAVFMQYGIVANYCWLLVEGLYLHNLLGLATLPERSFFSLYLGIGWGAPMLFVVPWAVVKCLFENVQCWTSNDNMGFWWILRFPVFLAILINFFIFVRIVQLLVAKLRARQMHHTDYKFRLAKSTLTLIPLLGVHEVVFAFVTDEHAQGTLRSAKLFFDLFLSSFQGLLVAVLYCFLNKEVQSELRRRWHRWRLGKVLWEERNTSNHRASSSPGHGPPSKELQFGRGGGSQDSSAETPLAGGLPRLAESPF
GLP-1R, sequence (P43220 24-463): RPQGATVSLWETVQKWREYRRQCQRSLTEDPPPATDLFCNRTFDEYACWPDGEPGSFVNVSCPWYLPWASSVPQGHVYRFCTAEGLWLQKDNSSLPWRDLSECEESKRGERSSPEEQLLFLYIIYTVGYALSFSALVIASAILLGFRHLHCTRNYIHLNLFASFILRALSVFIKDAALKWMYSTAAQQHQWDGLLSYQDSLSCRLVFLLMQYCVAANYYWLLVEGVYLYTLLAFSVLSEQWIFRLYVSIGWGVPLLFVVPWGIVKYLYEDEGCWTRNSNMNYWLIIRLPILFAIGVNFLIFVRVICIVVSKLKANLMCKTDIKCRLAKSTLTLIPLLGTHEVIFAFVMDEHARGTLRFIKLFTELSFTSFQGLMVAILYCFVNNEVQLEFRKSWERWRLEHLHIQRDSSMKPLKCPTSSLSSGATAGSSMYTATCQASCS
CLR, sequence (Q16602 23-461): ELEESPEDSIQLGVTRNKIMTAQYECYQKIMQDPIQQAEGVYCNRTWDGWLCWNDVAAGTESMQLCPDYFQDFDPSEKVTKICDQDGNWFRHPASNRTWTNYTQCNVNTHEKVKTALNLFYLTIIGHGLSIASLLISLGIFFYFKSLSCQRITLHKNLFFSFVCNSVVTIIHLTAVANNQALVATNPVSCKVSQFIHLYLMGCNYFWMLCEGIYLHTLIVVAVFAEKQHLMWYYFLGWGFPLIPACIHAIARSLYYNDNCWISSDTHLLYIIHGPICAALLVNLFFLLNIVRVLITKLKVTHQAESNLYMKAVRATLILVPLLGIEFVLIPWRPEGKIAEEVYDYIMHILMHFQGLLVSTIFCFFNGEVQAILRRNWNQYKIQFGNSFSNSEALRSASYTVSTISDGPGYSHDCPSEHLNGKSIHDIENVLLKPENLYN

`CC[C@H](C)[C@H](NC(=O)[C@H](C)NC(=O)[C@H](CC(=O)O)NC(=O)[C@H](C)NC(=O)[C@@H](N)Cc1ccc(O)cc1)C(=O)N[C@@H](Cc1ccccc1)C(=O)N[C@H](C(=O)N[C@@H](CC(N)=O)C(=O)N[C@@H](CO)C(=O)N[C@@H](Cc1ccc(O)cc1)C(=O)N[C@@H](CCCNC(=N)N)C(=O)N[C@@H](CCCCN)C(=O)N[C@H](C(=O)N[C@@H](CC(C)C)C(=O)NCC(=O)N[C@@H](CCC(N)=O)C(=O)N[C@@H](CC(C)C)C(=O)N[C@@H](CO)C(=O)N[C@@H](C)C(=O)N[C@@H](CCCNC(=N)N)C(=O)N[C@@H](CCCCN)C(=O)N[C@@H](CC(C)C)C(=O)N[C@@H](CC(C)C)C(=O)N[C@@H](CCC(N)=O)C(=O)N[C@@H](CC(=O)O)C(=O)N[C@H](C(=O)N[C@@H](CCSC)C(=O)N[C@@H](CO)C(=O)N[C@@H](CCCNC(=N)N)C(=O)N[C@@H](CCC(N)=O)C(=O)N[C@@H](CCC(N)=O)C(=O)NCC(=O)N[C@@H](CCC(=O)O)C(=O)N[C@@H](CO)C(=O)N[C@@H](CC(N)=O)C(=O)N[C@@H](CCC(N)=O)C(=O)N[C@@H](CCC(=O)O)C(=O)N[C@@H](CCCNC(=N)N)C(=O)NCC(=O)N[C@@H](C)C(=O)N[C@@H](CCCNC(=N)N)C(=O)N[C@@H](C)C(=O)N[C@@H](CCCNC(=N)N)C(=O)N[C@@H](CC(C)C)C(N)=O)[C@@H](C)CC)C(C)C)[C@@H](C)O` [GHRH, growth hormone-releasing hormone]: the Emax in assay [1] (RAMP1) was 124 ± 42.2%; in [1] (RAMP2) it was 124 ± 34%; in assay [1] (RAMP3), 102 ± 45.7%; in [1] (vector (no RAMP)), 100 ± 25.3%; in assay [3] (RAMP1), 100 ± 3.4%; in assay [3] (RAMP2), 102 ± 4.2%. Besides, the Emax stood at 100 ± 2% in assay [3] (RAMP3); 100 ± 1.8% in assay [3] (vector (no RAMP)); 188 ± 36.8% in assay [4] (RAMP1); 182 ± 44.2% in assay [4] (RAMP2); 168 ± 49.1% in assay [4] (RAMP3); 100 ± 11.2% in [4] (vector (no RAMP)). Further, the Emax in assay [5] (RAMP1) is 91.8 ± 8.3%; in assay [5] (RAMP3) it was 87.9 ± 8%; in assay [5] (vector (no RAMP)) it was 100 ± 6.9%; in assay [6] (RAMP1) it was 104 ± 1.2%; in assay [6] (RAMP2) it was 102 ± 1.4%; in [6] (RAMP3), 100 ± 1.5%. The “Gαq response, receptor alone” value in assay [2] is “did not affect Gαq response”.

For (−)-Adrenaline, the pEC50 in assay [7] (RAMP1) was determined as 6.5 ± 0.2; in assay [7] (RAMP2), 6.3 ± 0.4; in [7] (RAMP3), 6.9 ± 0.3; in assay [7] (vector (no RAMP)), 6.9 ± 0.2; in assay [8] (RAMP1), 6 ± 0.4; in assay [8] (RAMP2) it was 5.8 ± 0.5. Also, the pEC50 is given as 6 ± 0.4 in [8] (RAMP3); 6.2 ± 0.3 in assay [8] (vector (no RAMP)); 6.7 ± 0.2 in assay [9] (RAMP1); 6.5 ± 0.2 in assay [9] (RAMP2); 6.4 ± 0.2 in assay [9] (RAMP3); 6.4 ± 0.1 in [9] (vector (no RAMP)). In addition, the pEC50 in [10] (RAMP1) is given as 9.6 ± 0.1; in assay [10] (RAMP2), 9.7 ± 0; in [10] (RAMP3), 9.7 ± 0.1; in assay [10] (vector (no RAMP)), 9.6 ± 0. The Emax in assay [8] (RAMP1) is on record as 77.3 ± 11.1%; in assay [8] (RAMP2), 83.4 ± 15%; in [9] (RAMP1) it was 79.1 ± 5.7%; in [9] (RAMP2), 90 ± 5.4%; in assay [9] (RAMP3), 79.2 ± 6.1%.

On to “receptor activity-modulating protein 1 [RAMP1]”, for which the “Bmax (maximum measured BRET value)” value in assay [11] is reported as 1.149 ± 0.109; in assay [13] it was 0.573 ± 0.021; in [14] (setting [21]), “Linear fit”; in assay [15] (setting [21]), 1.122 ± 0.193; in assay [16] it was 2.039 ± 1.234; in assay [17], 1.316 ± 0.203. In addition, the figures for the “Bmax (maximum measured BRET value)” value in [18] and in assay [20] were 0.460 ± 0.017 and 1.364 ± 0.244, respectively. Further, the “RAMP cell surface expression” value in assay [12] was “promoted cell surface translocation”. For the same molecule, the interaction in words result in assay [14] (BRET) is listed as “poor interaction; also recorded: rather weak”; in [15] (BRET), “readily observed”; in [19] it was “insignificant”.
